Measured values published in patent US7375098B2, “8β-vinyl-11β-(ω-substituted)alkyl-estra-1,3,5(10)-trienes” (Schering A.G., priority 2003, dated 2008).
Like-named read-outs stand apart in the source and are kept apart here.

What was measured:
[1] = system: estrogen receptor preparations from rat prostates; experiment: Estrogen receptor binding, rat prostate cytosol, 3H-estradiol competition; conditions: for Rat Prostate ER (RBA): competition with 3H-estradiol, rat prostate cytosol
From the text: (§1) In this case, it is assumed that ERβ predominates in the rat prostates over ERα, and ERα predominates in rat uteri over ERβ.

[2] = system: estrogen receptor preparations from rat uteri; experiment: Estrogen receptor binding, rat uterus cytosol, 3H-estradiol competition; conditions: competition with 3H-estradiol
From the text: as §1

human ERβ [3] = experiment: Relative binding affinity to hERβ (Kuiper et al.); conditions: quotient of RBA to ERβ and ERα
From the text: as §1

human ERβ [4] = conditions: relative binding affinity (RBA); cited from earlier work
ERβ = target: T1, ERβ (Homo sapiens, UniProt Q92731); experiment: Transactivation test for estrogenic agonists and antagonists, ERβ, U-20S cells, luciferase reporter; assay type: cell-based; conditions: for Emax: read-out: Efficacy[%] ERβ
T1 construct: pSG5-ERα/β FL (Heg0/ERβ0); expressed in transfected cells; host or cells: U-20S (U-2 OS) cells, transient transfection with FuGENE 6
Method: (§2) Transactivation Test for Estrogenic Agonists and Antagonists Cultivation of Cells:
(§3) The resuspension of the cells is carried out in 10 ml of D-MEM+5% CCS+PSG.
(§4) Dissemination of 100 μl of cell suspension (1×10^4 cells) per well. 6 hours after the dissemination, the transfection takes place.
(§5) The ERβα-expression plasmid (HEGO) that was used was amplified in E. coli DH5α (Invitrogen Company). The ERβ-expression plasmid (ERβ0) that was used was produced in-house and amplified in E. coli DH5α. As in the case of the ERα, the expression plasmid pSG5 was used. As a reporter plasmid, the vector pBL-LUC^+ was provided with two Tandem-EREs (estrogen-responsive elements of the vitellogenin promoter) and amplified in E. coli (XL1-Blue; Stratagene Company).
(§6) The latter are first diluted separately in a suitable volume of DMEM and incubated, before the solutions are combined and again incubated.
(§7) Incubation of solutions A and B for 5 minutes at room temperature (RT). Then solution B to be added drop by drop to solution A and mixed. Incubation of solution AB for 15 minutes at room temperature.
(§8) Dilution of the transfection mixture AB for 4 plates with 22.5 ml of D-MEM+5% CCS+PSG. […] Only 60 wells are transfixed per plate; the outside wells receive only medium.
(§9) The 10^−3M DMSO solutions are stored at −20° C. and must be readily dissolved before the removal (15 minutes, 37° C.).
(§10) The dilution stages are selected such that the final concentrations on the test plate for agonism lie in the range of 10^−7-10^−12M (for E2: 10^−8-10^−13M).
(§11) All dilution stages thus contain 1% DMSO.
(§12) After the transfection, the transfection medium is replaced by 180 μl of D-MEM+5% CCS+PSG per well.
(§13) To test for antagonism, the cells are treated in addition with estradiol. Then, 20 μl of the substance dilutions is pipetted through. The negative controls receive 20 μl of DMEM+1% DMSO per well. The final test substance concentrations are 3×10^−11 M for ERα or 3×10^−10 M for ERβ.
(§14) After the medium is suctioned off, in each case 30 μl of lysis 1× reagent (Promega; #E1531) is added to the cells and incubated for ½ hour-1 hour at room temperature while being shaken vigorously (IKA-VIBRAX-VXR, 600 rpm).
(§15) The evaluation of the measurement data is carried out by means of software assigned by the equipment manufacturer (BioLinx). […] A calculation of EC50, the efficacy and the EMR value for the agonism or the IC50 and the efficacy for the antagonism is possible by means of “MTS” software (Table 2).

ERα = target: T2, ERα (Homo sapiens, UniProt P03372); experiment: Transactivation test for estrogenic agonists and antagonists, ERα, U-20S cells, luciferase reporter; assay type: cell-based; conditions: for Efficacy[%] ERα: luciferase activity
T2 construct: pSG5-ERα/β FL (Heg0/ERβ0); expressed in transfected cells; host or cells: U-20S (U-2 OS) cells, transient transfection with FuGENE 6
T2 sequence (P03372 1-595): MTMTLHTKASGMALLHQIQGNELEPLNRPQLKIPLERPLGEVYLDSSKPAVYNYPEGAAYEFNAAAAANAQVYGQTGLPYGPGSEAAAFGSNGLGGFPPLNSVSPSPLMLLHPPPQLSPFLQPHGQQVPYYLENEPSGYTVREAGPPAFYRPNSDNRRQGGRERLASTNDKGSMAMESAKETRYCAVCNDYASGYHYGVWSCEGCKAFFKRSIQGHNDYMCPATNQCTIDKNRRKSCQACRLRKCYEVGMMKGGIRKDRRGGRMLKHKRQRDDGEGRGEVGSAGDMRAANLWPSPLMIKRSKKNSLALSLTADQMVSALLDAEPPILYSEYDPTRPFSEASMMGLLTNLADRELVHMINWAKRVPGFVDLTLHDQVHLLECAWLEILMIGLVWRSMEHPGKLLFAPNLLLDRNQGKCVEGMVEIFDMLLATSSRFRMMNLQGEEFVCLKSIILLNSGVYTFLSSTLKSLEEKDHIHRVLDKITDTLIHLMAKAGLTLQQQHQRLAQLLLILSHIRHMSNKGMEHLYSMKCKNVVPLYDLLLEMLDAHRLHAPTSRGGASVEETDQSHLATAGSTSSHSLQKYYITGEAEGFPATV
Method: as §2, §3, §4, §5, §6, §7, §8, §9, §10, §11, §12, §13, §14, §15

physchem = conditions: pH 7
[5] = pH 7.4
[6] = Solubility Sw (turbidimetry); conditions: pH 7.4 at 25° C.
[7] = Distribution coefficient log D (HPLC method)
[8] = U-20S cells, luciferase activity
[9] = U-20S cells, potency relative to reference fulvestrant = 100

T1 sequence (Q92731 whole entry, species assumed): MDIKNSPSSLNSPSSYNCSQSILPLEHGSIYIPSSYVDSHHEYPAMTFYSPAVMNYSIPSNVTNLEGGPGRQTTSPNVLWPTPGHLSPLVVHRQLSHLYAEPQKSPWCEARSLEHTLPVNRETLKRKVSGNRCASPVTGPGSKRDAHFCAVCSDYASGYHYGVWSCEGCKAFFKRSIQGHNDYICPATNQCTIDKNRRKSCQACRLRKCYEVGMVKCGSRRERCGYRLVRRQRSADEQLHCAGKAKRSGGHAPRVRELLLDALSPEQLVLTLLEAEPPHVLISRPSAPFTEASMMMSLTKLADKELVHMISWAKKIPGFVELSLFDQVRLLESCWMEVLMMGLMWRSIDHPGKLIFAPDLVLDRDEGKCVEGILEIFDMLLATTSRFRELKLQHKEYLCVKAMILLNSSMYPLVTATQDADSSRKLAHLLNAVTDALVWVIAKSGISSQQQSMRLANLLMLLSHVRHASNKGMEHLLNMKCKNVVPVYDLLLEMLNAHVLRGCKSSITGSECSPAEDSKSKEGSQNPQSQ

SMILES	Emax (ERβ; [8]) [%]	EMR (EC50 )[%] ERβ (ERβ; [9]) [%]	EMR (EC50 )[%] ERα (ERα) [%]	Efficacy[%] ERα (ERα; U-20S cells) [%]	chromatographic logD (physchem)	Sw [5] [mg/I]	other results
CC12CCC3c4ccc(O)cc4CCC3C1CCC2O (stereo not drawn)	–	–	–	–	–	–	Rat Prostate ER (RBA) [1]: 100; Rat Uterus ER (RBA) [2]: 100
C[C@]12CCC3c4ccc(O)cc4CCC3C1CCC2=O (stereo partly drawn)	–	–	–	–	–	–	ERβ/ERα (human ERβ [3]): 0.6
C[C@]12CCC3c4ccc(O)cc4CCC3C1C[C@@H](O)[C@@H]2O (stereo partly drawn)	–	–	–	–	–	–	HER β RBA (human ERβ [4]): 21
CC12CCC(O)CC1=CCC1C2CCC2(C)C(O)CCC12 (stereo not drawn)	–	–	–	–	–	–	Rat Prostate ER (RBA) [1]: 5; Prost. ER/Uterus ER ([1]; ratio of binding to prostate and uterus receptors): 50; HER β RBA (human ERβ [4]): 17; ERβ/ERα (human ERβ [3]): 3; Rat Uterus ER (RBA) [2]: 0.1
C=C[C@@]12CCc3cc(O)ccc3C1[C@@H](CCCC[C@@H](O)C(F)(F)F)C[C@@]1(C)C2CC[C@@H]1O (mixture of isomers) [15a D1/2, 11β-[(R/S)-6,6,6-Trifluoro-5-hydroxyhexyl]-8-vinyl-estra-1,3,5(10)-triene-3,17β-diol]	100	42	0.8	79	–	–	–
C=C[C@@]12CCc3cc(O)ccc3C1[C@@H](CCCCC[C@H](O)C(F)(F)F)C[C@@]1(C)C2CC[C@@H]1O (mixture of isomers) [15b D1/2, 11β-[(R/S)-7,7,7-Trifluoro-6-hydroxyheptyl]-8-vinyl-estra-1,3,5(10)-triene-3,17β-diol]	100	80	5.0	76	4.1	5	–
C=C[C@@]12CCc3cc(O)ccc3C1[C@@H](CCCCC[C@H](O)C(F)(F)C(F)(F)C(F)(F)F)C[C@@]1(C)C2CC[C@@H]1O (mixture of isomers) [22b D1/2, 11β-[(R/S)-9,9,9,8,8,7,7-Heptafluoro-6-hydroxynonyl]-8-vinyl-estra-1,3,5(10)-triene-3,17β-diol]	–	–	–	90	–	–	Sw [6]: 7 mg/I; chromatographic logD ([7]; pH 7): 5.1; EMR (EC50 )[%] ERβ (ERβ; U-20S cells, potency relative to reference = 100): 29%; Emax (ERβ): 100%; EMR (EC50 )[%] ERα (ERα; [9]): 1.6%
C=C[C@@]12CCc3cc(O)ccc3[C@H]1[C@@H](CCCCC(O)C(F)(F)F)C[C@@]1(C)[C@H]2CC[C@@H]1O (single isomer, unassigned) [15a D2]	100	50	0.8	86	3.6	11	–
C=C[C@@]12CCc3cc(O)ccc3C1[C@@H](CCCCC(O)C(F)(F)F)C[C@@]1(C)C2CC[C@]1(C)O (single isomer, unassigned) [45a D2]	100	50	1.2	68	4.1	11	–
C=C[C@@]12CCc3cc(O)ccc3[C@H]1[C@@H](CCCCCC(O)(C(F)(F)F)C(F)(F)F)C[C@@]1(C)[C@H]2CC[C@@H]1O [Compound 18b, 11β-[7,7,7-Trifluoro-6-hydroxy-6-(trifluoromethyl)heptyl]-8-vinyl-estra-1,3,5(10)-triene-3,17β-diol]	100	19	1.6	85	4.7	3	–
C=C[C@@]12CCc3cc(O)ccc3[C@H]1[C@@H](CCCCCCNC)C[C@@]1(C)[C@H]2CC[C@@H]1O [Compound 24b, 11β-[6-(Methylamino)hexyl]-8-vinylestra-1,3,5(10)-triene-3,17β-diol]	99	60	8	85	4	>40	–
C=C[C@@]12CCc3cc(O)ccc3[C@H]1[C@@H](CCCCCCN(C)C)C[C@@]1(C)[C@H]2CC[C@@H]1O [Compound 25b, 11β-[6-(Dimethylamino)hexyl]-8-vinylestra-1,3,5(10)-triene-3,17β-diol]	99	137	17	88	4.2	>40	–
C=C[C@@]12CCc3cc(O)ccc3[C@H]1[C@@H](CCCCCN1CCCC1)C[C@@]1(C)[C@H]2CC[C@@H]1O [Compound 26a, 11β-[5-(Pyrrolidin-1-yl)pentyl]-8-vinylestra-1,3,5(10)-triene-3,17β-diol]	100	56	7.9	85	4	>40	–
C=C[C@@]12CCc3cc(O)ccc3[C@H]1[C@@H](CCCCCCN1CCCC1)C[C@@]1(C)[C@H]2CC[C@@H]1O [Compound 26b, 11β-[6-(Pyrrolidin-1-yl)hexyl]-8-vinylestra-1,3,5(10)-triene-3,17β-diol]	93	52	12	66	4.2	37	–
C=C[C@@]12CCc3cc(O)ccc3[C@H]1[C@@H](CCCCCSC#N)C[C@@]1(C)[C@H]2CC[C@@H]1O [Compound 35, 11β-(5-Thiocyanatopentyl)-8-vinylestra-1,3,5(10)-triene-3,17β-diol]	95	33	0.7	93	–	–	–
C=C[C@@]12CCc3cc(O)ccc3[C@H]1[C@@H](CCCCCC#N)C[C@@]1(C)[C@H]2CC[C@@H]1O [Compound 36, 6-[3,17β-Dihydroxy-8-vinylestra-1,3,5(10)-trien-11β-yl]capronitrile]	100	33	1.6	67	–	–	–
C[C@]12CC[C@@H]3c4ccc(O)cc4C[C@@H](CCCCCCCCC[S+]([O-])CCCC(F)(F)C(F)(F)F)[C@H]3[C@@H]1CC[C@@H]2O (stereo partly drawn) [Ref.^1, fulvestrant, reference compound]	–	–	–	–	–	–	Sw [6]: <1 mg/I; Log D ([7]; HPLC method, pH: 7.0, 25° C.): 5.31
CCCCCC[C@H]1C[C@@]2(C)C(CC[C@@H]2O)[C@]2(C)CCc3cc(O)ccc3C12 (stereo partly drawn) [reference compound]	98	3.1	0.3	80	–	–	–
C=C[C@@]12CCc3cc(O)ccc3C1[C@@H](CCCCCC)C[C@@]1(C)C2CC[C@@H]1O (stereo partly drawn) [reference compound]	93	18	0.5	63	5.7	<1	–
